In patent US8461339B2, “Pharmaceutical compounds” (Sentinel Oncology Limited, priority 2008, dated 2013):

Experiments:
KDR (h) = target: T1, KDR (h) (Homo sapiens, UniProt P35968); assay: Kinase inhibition assay, KDR (h) (Millipore, 33P-ATP filter assay); format: biochemical; details: read-out: IC50 against KDR kinase
T1 construct: purchased Millipore
Experimental: (§1) Compounds of the invention can be screened for activity against a range of protein kinases using the assays set out below. Kinase inhibition assays were carried out by Millipore, Dundee Technology Park, Dundee, UK.
(§2) In a final reaction volume of 25 μL, KDR (h) (5-10 mU) is incubated with 8 mM MOPS pH 7.0, 0.2 mM EDTA, 0.33 mg/mL myelin basic protein, 10 mM Mg Acetate and [γ-33P-ATP] (specific activity approx. 500 cpm/pmol, concentration as required). The reaction is initiated by the addition of the MgATP mix. After incubation for 40 minutes at room temperature, the reaction is stopped by the addition of 5 μL of a 3% phosphoric acid solution. 10 μL of the reaction is then spotted onto a P30 filtermat and washed three times for 5 minutes in 75 mM phosphoric acid and once in methanol prior to drying and scintillation counting.

HCT116 cells = assay: Anti-proliferative activity, Alamar Blue assay; format: cell-based; details: Homo sapiens, HCT-116, 72 h incubation, read-out: cell proliferation IC50
Experimental: The anti-proliferative activities of compounds of the invention are determined by measuring the ability of the compounds to inhibition of cell growth in a number of cell lines. Inhibition of cell growth is measured using the Alamar Blue assay
The following protocol was used: • 1) HT29, HCT116 or Colo205 cells were seeded at an appropriate density and allowed to adhere overnight. • 2) Test compounds were prepared from 10 mM DMSO stocks to give a final concentration range as shown on the graphs. DMSO was constant throughout each experiment. • 3) Test compounds were incubated with the cells for 72 h at 37° C. 5% CO2 in a humidified atmosphere. • 4) Alamar blue 10% (v/v) was then added and incubated for a further 6 h, and fluorescent product detected using the BMG FLUOstar plate reader. • 5) Data was analysed using a 4-parameter logistic equation in Graph Pad Prism.

Flt4 (h) = target: T2, Flt4 (h) (Homo sapiens, UniProt P35916); assay: Kinase inhibition assay, Flt4 (h) (Millipore, 33P-ATP filter assay); format: biochemical
T2 construct: purchased Millipore
Experimental: as §1
as §2, with “Flt4” for “KDR”, “500 μM GGEEEEYFELVKKKK,” for “0.33 mg/mL myelin basic protein,”, “MgAcetate” for “Mg Acetate”, “[[…]-33P-ATP]” for “[γ-33P-ATP]”

[1] = test system: human HT29 colon carcinoma cells; assay: HT29 colony forming assay; format: cell-based; details: HT-29, 240 h, 10 days incubation, colonies counted
Experimental: The ability of compounds of the invention to prevent growth of discrete colonies of human HT29 colon carcinoma cells over a 10 day time course can be measured using the following protocol: • 1. HT29 cells (ECACC No. 91072201) are seeded in 24-well plates at a concentration of 75 cells per well and allowed to adhere overnight prior to addition of compound or vehicle control. • 2. Test compounds are prepared from 10 mM DMSO stocks to give a final concentration range of 10 μM, 3 μM, 1 μM, 0.3 μM, 0.1 μM, 0.03 μM, 0.01 μM and vehicle control. The DMSO content is constant at 0.1%. • 3. Test compounds are incubated with the cells for 10 days at 37° C. 5% CO2 in a humidified atmosphere. • 4. Colonies are fixed using Carnoy's Fixative (75% methanol, 25% acetic acid) for 5 minutes, and allowed to air dry. • 5. Colonies are stained using 0.4% (w/v) crystal violet for 2 minutes. • 6. Colonies (containing more than 50 cells) are counted by eye and data analysed using a 4-parameter logistic equation in GraphPad Prism.

Yes (h) = target: T3, Yes (h) (Homo sapiens, UniProt P07947); assay: Kinase inhibition assay, Yes (h) (Millipore, 33P-ATP filter assay); format: biochemical; details: read-out: IC50 against Yes kinase
T3 construct: purchased Millipore
Experimental: as §1
as §2, with “μl, Yes” for “μL, KDR”, “0.1 mg/ml poly(Glu, Tyr) 4:1,” for “0.33 mg/mL myelin basic protein,”, “MgAcetate” for “Mg Acetate”, “μl” for “μL”, “Filtermat A” for “P30 filtermat”

Flt3 (h) = target: T4, Flt3 (h) (Homo sapiens, UniProt P36888); assay: Kinase inhibition assay, Flt3 (h) (Millipore, 33P-ATP filter assay); format: biochemical
T4 construct: purchased Millipore
T4 sequence (P36888 27-993): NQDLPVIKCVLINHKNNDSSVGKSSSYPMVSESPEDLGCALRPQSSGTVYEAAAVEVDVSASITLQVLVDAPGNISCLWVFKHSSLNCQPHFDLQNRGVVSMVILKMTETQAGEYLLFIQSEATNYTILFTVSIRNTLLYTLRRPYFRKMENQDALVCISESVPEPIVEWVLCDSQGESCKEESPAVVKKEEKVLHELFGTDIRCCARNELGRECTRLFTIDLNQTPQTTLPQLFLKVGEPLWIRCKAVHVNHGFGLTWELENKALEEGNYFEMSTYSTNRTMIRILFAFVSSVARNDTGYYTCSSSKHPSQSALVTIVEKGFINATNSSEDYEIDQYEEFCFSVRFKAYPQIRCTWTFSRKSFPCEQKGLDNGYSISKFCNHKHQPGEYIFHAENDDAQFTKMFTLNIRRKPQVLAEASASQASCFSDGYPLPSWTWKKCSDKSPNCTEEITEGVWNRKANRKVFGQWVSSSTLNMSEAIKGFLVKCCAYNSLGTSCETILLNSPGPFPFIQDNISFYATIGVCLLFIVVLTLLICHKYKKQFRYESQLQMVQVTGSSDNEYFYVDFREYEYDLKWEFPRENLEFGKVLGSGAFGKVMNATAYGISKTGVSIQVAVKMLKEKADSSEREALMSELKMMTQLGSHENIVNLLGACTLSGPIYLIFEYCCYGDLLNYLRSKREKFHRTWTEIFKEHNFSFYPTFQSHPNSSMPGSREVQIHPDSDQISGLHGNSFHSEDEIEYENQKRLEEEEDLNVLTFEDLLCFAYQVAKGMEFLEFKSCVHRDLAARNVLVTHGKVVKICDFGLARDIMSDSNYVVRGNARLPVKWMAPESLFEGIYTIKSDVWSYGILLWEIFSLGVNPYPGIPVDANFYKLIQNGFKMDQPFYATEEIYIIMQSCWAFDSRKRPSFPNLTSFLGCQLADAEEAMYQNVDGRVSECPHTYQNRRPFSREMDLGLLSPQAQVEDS
Experimental: as §1
as §2, with “Flt3” for “KDR”, “50 μM EAIYAAPFAKKK,” for “0.33 mg/mL myelin basic protein,”, “MgAcetate” for “Mg Acetate”, “[[…]-33P-ATP]” for “[γ-33P-ATP]”

T2 sequence (P35916 25-1363): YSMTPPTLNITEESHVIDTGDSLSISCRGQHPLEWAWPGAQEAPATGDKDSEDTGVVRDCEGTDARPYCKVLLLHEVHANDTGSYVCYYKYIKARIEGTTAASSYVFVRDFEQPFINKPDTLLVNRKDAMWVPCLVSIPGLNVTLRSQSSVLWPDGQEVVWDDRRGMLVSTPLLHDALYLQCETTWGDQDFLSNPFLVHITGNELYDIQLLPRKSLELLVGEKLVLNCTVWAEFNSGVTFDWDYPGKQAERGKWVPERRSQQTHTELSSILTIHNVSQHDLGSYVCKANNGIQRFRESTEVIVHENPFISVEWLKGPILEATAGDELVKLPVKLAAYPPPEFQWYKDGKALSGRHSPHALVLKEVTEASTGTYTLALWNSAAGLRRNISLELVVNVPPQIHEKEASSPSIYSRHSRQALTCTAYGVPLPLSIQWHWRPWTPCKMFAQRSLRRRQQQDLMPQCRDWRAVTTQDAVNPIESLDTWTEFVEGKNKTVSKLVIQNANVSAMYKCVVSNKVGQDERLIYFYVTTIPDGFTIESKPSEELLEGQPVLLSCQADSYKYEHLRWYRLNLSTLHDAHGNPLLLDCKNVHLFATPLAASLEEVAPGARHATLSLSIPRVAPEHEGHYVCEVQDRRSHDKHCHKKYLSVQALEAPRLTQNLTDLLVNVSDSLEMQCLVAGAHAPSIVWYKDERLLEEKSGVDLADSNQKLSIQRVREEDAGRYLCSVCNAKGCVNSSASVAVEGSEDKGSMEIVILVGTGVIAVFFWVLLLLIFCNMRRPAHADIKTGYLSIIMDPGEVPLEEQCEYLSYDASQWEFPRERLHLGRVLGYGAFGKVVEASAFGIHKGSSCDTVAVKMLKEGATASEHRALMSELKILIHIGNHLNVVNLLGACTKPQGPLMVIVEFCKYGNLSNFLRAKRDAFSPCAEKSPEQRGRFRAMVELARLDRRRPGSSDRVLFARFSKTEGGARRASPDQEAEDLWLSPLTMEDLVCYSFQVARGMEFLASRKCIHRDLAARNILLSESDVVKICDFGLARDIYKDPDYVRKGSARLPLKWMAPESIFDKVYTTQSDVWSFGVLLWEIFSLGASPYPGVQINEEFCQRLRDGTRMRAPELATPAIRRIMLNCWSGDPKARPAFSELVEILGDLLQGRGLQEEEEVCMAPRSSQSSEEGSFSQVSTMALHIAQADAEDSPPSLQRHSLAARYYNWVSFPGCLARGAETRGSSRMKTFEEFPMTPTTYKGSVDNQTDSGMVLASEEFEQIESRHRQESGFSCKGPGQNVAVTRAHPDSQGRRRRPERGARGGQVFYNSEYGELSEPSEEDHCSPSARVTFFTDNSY
T1 sequence (P35968 20-1356): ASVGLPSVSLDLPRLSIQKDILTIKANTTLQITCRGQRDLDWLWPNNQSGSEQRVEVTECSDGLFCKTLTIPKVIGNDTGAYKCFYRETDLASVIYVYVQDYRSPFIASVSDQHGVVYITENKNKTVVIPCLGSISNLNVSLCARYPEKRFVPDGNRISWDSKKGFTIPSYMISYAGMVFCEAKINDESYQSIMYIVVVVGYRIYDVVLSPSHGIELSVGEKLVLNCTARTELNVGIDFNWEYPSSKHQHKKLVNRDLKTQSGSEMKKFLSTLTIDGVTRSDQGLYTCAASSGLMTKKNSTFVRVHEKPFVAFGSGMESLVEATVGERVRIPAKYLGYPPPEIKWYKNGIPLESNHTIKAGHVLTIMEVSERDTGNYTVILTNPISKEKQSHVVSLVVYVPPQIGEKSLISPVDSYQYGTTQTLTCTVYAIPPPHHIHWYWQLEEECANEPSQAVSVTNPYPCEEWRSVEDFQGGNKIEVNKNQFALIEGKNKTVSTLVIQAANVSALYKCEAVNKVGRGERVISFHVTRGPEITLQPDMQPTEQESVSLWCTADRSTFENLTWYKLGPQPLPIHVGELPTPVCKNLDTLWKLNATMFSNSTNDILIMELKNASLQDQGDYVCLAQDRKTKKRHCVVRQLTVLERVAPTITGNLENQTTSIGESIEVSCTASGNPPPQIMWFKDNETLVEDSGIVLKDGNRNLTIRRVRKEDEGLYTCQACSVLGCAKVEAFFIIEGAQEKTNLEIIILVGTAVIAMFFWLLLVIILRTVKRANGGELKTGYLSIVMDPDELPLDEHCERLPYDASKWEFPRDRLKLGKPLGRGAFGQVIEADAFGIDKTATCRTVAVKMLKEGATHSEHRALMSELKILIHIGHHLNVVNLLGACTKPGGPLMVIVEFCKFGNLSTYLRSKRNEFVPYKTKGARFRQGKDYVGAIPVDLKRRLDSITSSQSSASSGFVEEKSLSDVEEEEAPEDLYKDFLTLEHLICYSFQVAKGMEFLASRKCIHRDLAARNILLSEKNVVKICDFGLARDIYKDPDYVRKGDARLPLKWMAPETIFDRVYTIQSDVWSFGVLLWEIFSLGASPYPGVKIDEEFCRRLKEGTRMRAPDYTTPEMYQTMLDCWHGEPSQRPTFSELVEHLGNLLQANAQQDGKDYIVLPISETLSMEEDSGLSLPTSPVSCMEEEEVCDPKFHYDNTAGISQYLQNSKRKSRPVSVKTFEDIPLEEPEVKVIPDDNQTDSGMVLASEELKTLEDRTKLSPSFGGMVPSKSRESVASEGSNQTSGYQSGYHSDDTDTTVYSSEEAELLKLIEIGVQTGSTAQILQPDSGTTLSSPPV
T3 sequence (P07947 whole entry): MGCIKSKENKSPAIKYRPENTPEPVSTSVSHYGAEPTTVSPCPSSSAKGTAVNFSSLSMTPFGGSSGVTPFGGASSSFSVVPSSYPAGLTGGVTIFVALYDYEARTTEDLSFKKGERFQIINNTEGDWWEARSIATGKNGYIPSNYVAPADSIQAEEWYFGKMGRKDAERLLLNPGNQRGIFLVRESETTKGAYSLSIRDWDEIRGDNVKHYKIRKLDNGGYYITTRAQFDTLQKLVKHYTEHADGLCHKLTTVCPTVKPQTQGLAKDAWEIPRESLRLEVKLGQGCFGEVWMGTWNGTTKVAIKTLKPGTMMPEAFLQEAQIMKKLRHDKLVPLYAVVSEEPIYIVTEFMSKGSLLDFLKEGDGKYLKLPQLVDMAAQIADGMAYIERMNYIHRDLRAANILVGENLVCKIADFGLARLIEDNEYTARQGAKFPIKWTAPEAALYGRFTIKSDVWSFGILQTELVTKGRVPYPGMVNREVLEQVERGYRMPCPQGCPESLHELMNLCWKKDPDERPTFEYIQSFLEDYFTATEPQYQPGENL

| Compound | IC50 (KDR (h)) | IC50 (HCT116 cells) | IC50 (Flt4 (h)) | IC50 [1] | IC50 (Yes (h)) | IC50 (Flt3 (h)) |
| --- | --- | --- | --- | --- | --- | --- |
| c1ccc2cc(Nc3cc(CN4CCCC4)ccn3)ncc2c1 [Example 1, Isoquinolin-3-yl-(4-pyrrolidin-1-ylmethyl-pyridin-2-yl)-amine] | < 5 µM | < 25 µM | < 0.5 µM | 1.38 µM | < 5 µM | < 0.1 µM |
| Clc1ccc2cc(Nc3cc(CN4CCCC4)ccn3)ncc2c1 [Example 14, 7-Chloroisoquinolin-3-yl-(4-pyrrolidin-1-ylmethyl-pyridin-2-yl)-amine] |  |  | > 0.1 µM |  |  | < 0.1 µM |
| COc1ccc2cnc(Nc3cc(CN4CCCC4)ccn3)cc2c1 [Example 17, (6-Methoxy-isoquinolin-3-yl)-(4-pyrrolidin-1-ylmethyl-pyridin-2-yl)-amine] |  |  | < 0.1 µM |  |  | < 0.1 µM |
| CN(C)C(=O)N1CCN(Cc2ccnc(Nc3cc4ccccc4cn3)c2)CC1 [Example 20, 4-[2-(Isoquinolin-3-ylamino)-pyridin-4-ylmethyl]-piperazine-1-carboxylic acid dimethylamide] |  |  | < 0.1 µM |  |  | < 0.1 µM |
| c1ccc2cc(Nc3cc(CN4CCNCC4)ccn3)ncc2c1 [Example 21B, Isoquinolin-3-yl-(4-piperazin-1-ylmethyl-pyridin-2-yl)-amine] |  |  | < 0.5 µM |  |  | < 5 µM |
| O=C(CO)N1CCN(Cc2ccnc(Nc3cc4ccccc4cn3)c2)CC1 [Example 23B, 2-Hydroxy-1-{4-[2-(isoquinolin-3-ylamino)-pyridin-4-ylmethyl]-piperazin-1-yl}-ethanone] |  |  | < 0.1 µM |  |  | < 0.1 µM |

Continued, values first:

| IC50 (KDR (h)) | IC50 (HCT116 cells) | IC50 (Flt4 (h)) | IC50 [1] | IC50 (Yes (h)) | IC50 (Flt3 (h)) | Compound |
| --- | --- | --- | --- | --- | --- | --- |
|  |  | < 0.1 µM |  |  | < 0.1 µM | Fc1ccc2cc(Nc3cc(CN4CCCC4)ccn3)ncc2c1 [Example 18, 7-Fluoroisoquinolin-3-yl-(4-pyrrolidin-1-ylmethyl-pyridin-2-yl)-amine] |
|  |  | < 0.1 µM |  |  | < 0.1 µM | CNC(=O)N1CCN(Cc2ccnc(Nc3cc4ccccc4cn3)c2)CC1 [Example 19, 4-[2-(Isoquinolin-3-ylamino)-pyridin-4-ylmethyl]-piperazine-1-carboxylic acid methylamide] |
|  |  | < 0.5 µM |  |  | < 0.1 µM | NC(=O)N1CCN(Cc2ccnc(Nc3cc4ccccc4cn3)c2)CC1 [Example 21C, 4-[2-(Isoquinolin-3-ylamino)-pyridin-4-ylmethyl]-piperazine-1-carboxylic acid amide] |
|  |  | < 0.5 µM |  |  | < 0.1 µM | CC(=O)N1CCN(Cc2ccnc(Nc3cc4ccccc4cn3)c2)CC1 [Example 22, 1-[4-[2-(Isoquinolin-3-ylamino)-pyridin-4-ylmethyl]-piperazin-1-yl]-ethanone] |
